# Reference: ChEMBL document CHEMBL1201862, “PubChem BioAssay data set” (2004)
#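 The compound was tested at five concentrations on cells cultured in 96-well plates, with a 48-hour exposure period. GI50 marks 50% less growth.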 Active and inactive are the calls of the source. Rule as the data show it: active = GI50 up to about 1.1 µM and inactive = higher.
# Key:
# Test in all cases: NCI-60 cell line screen, 48 h
# 786-0 = tested on: 786-0
# MCF7 = tested on: MCF7
# HCT-116 = tested on: HCT-116
# DU-145 = tested on: DU-145
# OVCAR-8 = tested on: OVCAR-8
# SK-OV-3 = tested on: SK-OV-3
# ACHN = tested on: ACHN
# LOX IMVI = tested on: LOX IMVI
# UACC-257 = tested on: UACC-257
# NCI-H460 = tested on: NCI-H460
# SK-MEL-28 = tested on: SK-MEL-28
# SW-620 = tested on: SW-620
# OVCAR-3 = tested on: OVCAR-3
# UACC-62 = tested on: UACC-62
# CAKI-1 = tested on: CAKI-1
# RXF 393 = tested on: RXF 393
# RPMI-8226 = tested on: RPMI-8226
# PC-3 = tested on: PC-3
# M14 = tested on: M14
# NCI-H23 = tested on: NCI-H23
# SK-MEL-2 = tested on: SK-MEL-2
# MOLT-4 = tested on: MOLT-4
# SF-295 = tested on: SF-295
# IGROV-1 = tested on: IGROV-1
# TK-10 = tested on: TK-10
# HT-29 = tested on: HT-29
# UO-31 = tested on: UO-31
# A549 = tested on: A549
# KM12 = tested on: KM12
# CCRF-CEM = tested on: CCRF-CEM
# COLO 205 = tested on: COLO 205
# OVCAR-4 = tested on: OVCAR-4
# EKVX = tested on: EKVX
# U-251 = tested on: U-251
# Malme-3M = tested on: Malme-3M
# MDA-MB-231 = tested on: MDA-MB-231
# K562 = tested on: K562
# BT-549 = tested on: BT-549
# SN12C = tested on: SN12C
# MDA-MB-435 = tested on: MDA-MB-435
# HL-60 = tested on: HL-60
# HCC 2998 = tested on: HCC 2998
# HCT-15 = tested on: HCT-15
# T47D = tested on: T47D
# SR = tested on: SR
# Hs-578T = tested on: Hs-578T
# HOP-62 = tested on: HOP-62
# OVCAR-5 = tested on: OVCAR-5
# NCI/ADR-RES = tested on: NCI/ADR-RES
# SNB-19 = tested on: SNB-19
# SF-268 = tested on: SF-268
# SNB-75 = tested on: SNB-75
# NCI-H226 = tested on: NCI-H226
# SK-MEL-5 = tested on: SK-MEL-5
# MDA-N = tested on: MDA-N
# HOP-92 = tested on: HOP-92
# SF-539 = tested on: SF-539
# NCI-H522 = tested on: NCI-H522
# A498 = tested on: A498
compound,measurement,setting,value
CCOC(=O)n1[nH]c(=O)n(-c2ccccc2)c1=O,GI50,786-0,> 100 µM (inactive)
same,GI50,MCF7,> 100 µM (inactive)
same,GI50,HCT-116,> 100 µM (inactive)
same,GI50,DU-145,> 100 µM (inactive)
same,GI50,OVCAR-8,> 100 µM (inactive)
same,GI50,SK-OV-3,> 100 µM (inactive)
same,GI50,ACHN,> 100 µM (inactive)
same,GI50,LOX IMVI,> 100 µM (inactive)
same,GI50,UACC-257,> 100 µM (inactive)
same,GI50,NCI-H460,> 100 µM (inactive)
same,GI50,SK-MEL-28,> 100 µM (inactive)
same,GI50,SW-620,> 100 µM (inactive)
same,GI50,OVCAR-3,> 100 µM (inactive)
same,GI50,UACC-62,> 100 µM (inactive)
same,GI50,CAKI-1,> 100 µM (inactive)
same,GI50,RXF 393,> 100 µM (inactive)
same,GI50,RPMI-8226,> 100 µM (inactive)
same,GI50,PC-3,> 100 µM (inactive)
same,GI50,M14,> 100 µM (inactive)
same,GI50,NCI-H23,> 100 µM (inactive)
same,GI50,SK-MEL-2,> 100 µM (inactive)
same,GI50,MOLT-4,> 100 µM (inactive)
same,GI50,SF-295,> 100 µM (inactive)
same,GI50,IGROV-1,> 100 µM (inactive)
same,GI50,TK-10,> 100 µM (inactive)
same,GI50,HT-29,> 100 µM (inactive)
same,GI50,UO-31,> 100 µM (inactive)
same,GI50,A549,> 100 µM (inactive)
same,GI50,KM12,> 100 µM (inactive)
same,GI50,CCRF-CEM,> 100 µM (inactive)
same,GI50,COLO 205,> 100 µM (inactive)
same,GI50,OVCAR-4,> 100 µM (inactive)
same,GI50,EKVX,> 100 µM (inactive)
same,GI50,U-251,> 100 µM (inactive)
same,GI50,Malme-3M,> 100 µM (inactive)
same,GI50,MDA-MB-231,> 100 µM (inactive)
same,GI50,K562,> 100 µM (inactive)
same,GI50,BT-549,> 100 µM (inactive)
same,GI50,SN12C,> 100 µM (inactive)
same,GI50,MDA-MB-435,> 100 µM (inactive)
same,GI50,HL-60,> 100 µM (inactive)
same,GI50,HCC 2998,> 100 µM (inactive)
same,GI50,HCT-15,> 100 µM
same,GI50,T47D,> 100 µM (inactive)
same,GI50,SR,> 100 µM (inactive)
same,GI50,Hs-578T,> 100 µM (inactive)
same,GI50,HOP-62,> 100 µM (inactive)
same,GI50,OVCAR-5,> 100 µM (inactive)
same,GI50,NCI/ADR-RES,> 100 µM (inactive)
same,GI50,SNB-19,> 100 µM (inactive)
same,GI50,SF-268,> 100 µM (inactive)
same,GI50,SNB-75,> 100 µM (inactive)
same,GI50,NCI-H226,> 100 µM (inactive)
same,GI50,SK-MEL-5,> 100 µM (inactive)
same,GI50,MDA-N,> 100 µM (inactive)
CO/C(N)=C(C#N)/N=C/c1ccsc1,GI50,786-0,23.9 µM (inactive)
same,GI50,HOP-92,34.1 µM (inactive)
same,GI50,MCF7,32.5 µM (inactive)
same,GI50,HCT-116,40 µM (inactive)
same,GI50,DU-145,42.4 µM (inactive)
same,GI50,OVCAR-8,59 µM (inactive)
same,GI50,SK-OV-3,> 100 µM (inactive)
same,GI50,ACHN,> 100 µM (inactive)
same,GI50,LOX IMVI,18.6 µM (inactive)
same,GI50,UACC-257,41.9 µM (inactive)
same,GI50,NCI-H460,> 100 µM (inactive)
same,GI50,SK-MEL-28,85.5 µM (inactive)
same,GI50,SW-620,53.2 µM (inactive)
same,GI50,SF-539,26.2 µM (inactive)
same,GI50,OVCAR-3,30.6 µM (inactive)
same,GI50,UACC-62,33.4 µM (inactive)
same,GI50,CAKI-1,37.2 µM (inactive)
same,GI50,RXF 393,31.8 µM (inactive)
same,GI50,PC-3,81.1 µM (inactive)
same,GI50,M14,29 µM (inactive)
same,GI50,NCI-H23,37.3 µM (inactive)
same,GI50,SK-MEL-2,37.3 µM (inactive)
same,GI50,MOLT-4,47.6 µM (inactive)
same,GI50,SF-295,> 100 µM (inactive)
same,GI50,IGROV-1,52.6 µM (inactive)
same,GI50,TK-10,> 100 µM (inactive)
same,GI50,HT-29,40.7 µM (inactive)
same,GI50,UO-31,> 100 µM (inactive)
same,GI50,A549,> 100 µM (inactive)
same,GI50,NCI-H522,23.9 µM (inactive)
same,GI50,KM12,60.7 µM (inactive)
same,GI50,CCRF-CEM,24 µM (inactive)
same,GI50,COLO 205,36.6 µM (inactive)
same,GI50,OVCAR-4,> 100 µM (inactive)
same,GI50,EKVX,54.6 µM (inactive)
same,GI50,U-251,40 µM (inactive)
same,GI50,Malme-3M,40.6 µM (inactive)
same,GI50,MDA-MB-231,32.7 µM (inactive)
same,GI50,K562,30.4 µM (inactive)
same,GI50,BT-549,20.4 µM (inactive)
same,GI50,SN12C,> 100 µM (inactive)
same,GI50,MDA-MB-435,36.2 µM (inactive)
same,GI50,HL-60,13.1 µM (inactive)
same,GI50,HCC 2998,> 100 µM (inactive)
same,GI50,HCT-15,34.3 µM
same,GI50,T47D,68.4 µM (inactive)
same,GI50,Hs-578T,52.2 µM (inactive)
same,GI50,HOP-62,> 100 µM (inactive)
same,GI50,A498,> 100 µM (inactive)
same,GI50,OVCAR-5,> 100 µM (inactive)
same,GI50,NCI/ADR-RES,> 100 µM (inactive)
same,GI50,SNB-19,> 100 µM (inactive)
same,GI50,SF-268,44.7 µM (inactive)
same,GI50,SNB-75,56 µM (inactive)
same,GI50,NCI-H226,> 100 µM (inactive)
same,GI50,SK-MEL-5,28.2 µM (inactive)
same,GI50,MDA-N,28.5 µM (inactive)
